The source of these data is patent US6352989B1, “Nitrogenous heterocyclic derivatives and medicine thereof” (Eisai Co., Ltd., priority 1998, dated 2002).

In general, IC50 refers to the concentration at which inhibition is half-maximal. As a reminder, the melting point is the temperature of the solid-liquid transition.

One data set concerns TNFα production. The experiment in a line: Inhibitory action on production of TNFα (LPS-stimulated human peripheral blood monocyte fraction, ELISA). The format is cell-based. Conditions: LPS-stimulated human peripheral blood monocytes, incubation 18 to 24 hours, read-out: TNF^α Inhibition IC50. On the procedure: Inhibitory Action on Production of TNF: Human peripheral blood was collected in […] and centrifuged (1000 rpm, 10 minutes, at room temperature) to remove platelet rich plasma, and then the blood sample was mixed with Hank's balanced salt solution (HBSS) (with an equal volume to the removed plasma) containing penicillin (100 units/ml) and streptomycin (100 μg/ml) (referred to hereinafter as “p, s”). Ficoll-paque (Pharmacia) with an volume of 3/5 relative to the sample mixture was layered on the lower layer and centrifuged at 1500 rpm for 30 minutes at room temperature, and the monocyte nucleus fraction was collected. The resulting monocyte nucleus fraction was washed twice with p, s-containing HBSS and prepared as a cell float at a cell density of 2-4×10^6 cells/ml in p, s-containing RPMI1640 (containing 10% FCS). 400 μl of the prepared cell float was added to a 48-wells culture plate, and 50 μl LPS (100 ng/ml of saline) and 50 μl of each of compound solutions prepared at various concentrations were added to each well, followed by incubation at 37° C. in a 5% CO2 mixed air. After incubation for 18 to 24 hours, the incubated buffer was separated, and TNFα thus released from the cells was measured by an ELISA kit (Amasham).
The inhibitory action of the compound on production of TNFα was determined in terms of IC50 by plotting the concentrations of the compound and the amount of produced TNFα (%relative to the control) on semilogarithmic graph paper. The control (100%) for the amount of TNFα produced was obtained by subtracting the amount of TNFα produced in the (basal) group where neither LPS nor the compound was added, from the amount of TNFα produced in the (control) group where the compound was not added.
After the compound was dissolved at a concentration of […] in DMSO solution containing the compound at a concentration which was 1000 times as high as the final concentration, and then the solution was diluted with RPMI1640 containing 10% FCS and p,s, to prepare a solution containing the compound at a concentration which was 10 times as high as the final concentration. In place of the compound solution, RPMI1640 (1% DMSO, 10% FCS) containing p, s was added to the control group basal group. In place of the LPS solution, physiological saline was added to the basal group.
Background: ELISA stands for enzyme-linked immunosorbent assay.

A further data set concerns the target PDE4D (Homo sapiens, UniProt Q08499). The data set is described as follows: Inhibitory action on PDE4 (homogenate of BHK cells expressing cloned human PDE4D, [3H]-cAMP hydrolysis). Particulars: average in triplicate measurements; 1 μM [3H]-cAMP substrate; read-out: PDE4 Inhibition IC50. The format is biochemical. The method, then:
Inhibitory Action on PDE4: PDE4D was cloned from human placental mRNA by PCR techniques, and cDNA after an alternative spliced site (Mol. Cell. Biol., 13, 6558, 1993) was expressed in BHK cells. Two clones of BHK cells expressing PDE4 activity which was 100 or more times as high as endogenous PDE4 activity were obtained, and one of the clones was cultured in a large amount, and its homogenate was used as an enzyme source of PDE4.
50 mM Tris-HCl (pH 8.0), 0.1 mM EGTA, 0.1 mM MgCl2, 1 μM [^3H]-cGMP (100,000 dpm/tube) or 1 μM [^3H]-cAMP (100,000 dpm/tube) was added to the above homogenate, and 0.2 ml of the mixture was incubated at 30° C. for 10 to 20 minutes in the presence or absence of a test compound. The enzyme reaction was stopped by incubating the mixture at 95° C. for 1.5 minutes, and after cooling on ice, 50 μl nucleotidase (10 units/ml) was added thereto and incubated at 30° C. for 10 minutes. 550 μl of AG1-X2 resin slurry (H2O:resin=2:1) was added to the reaction mixture, then left at 4° C. for 10 minutes and centrifuged (10,000 rpm, 2.5 minutes, 4° C.), and 450 μl of the supernatant was measured for radioactivity.
The activity was compared in terms of IC50 (concentration of the compound at which 50% of the enzyme activity is inhibited) IC50 was determined by plotting of the concentration of cAMP as the substrate and the concentration of the compound on logarithmic graph paper. The results shown in Table 1 are the average in triplicate measurements. The test compound was first dissolved in DMSO and then diluted with the above-mentioned buffer for use.

For another data set, the system named is ZDP rat. The data set is described as follows: Blood sugar-depressing action (ZDP rat). Conditions: for Blood sugar level, Before the administration: baseline before the administration of the test compound; for Blood sugar level, After the continuous administration for 1 week / Glucose level relative to that (=100%) before the administration, after the continuous administration for 1 week: oral, once every day for 1 week; for Blood sugar level, After the continuous administration for 1 week: 4 hours fast, tail vein blood; for Glucose level relative to that (=100%) before the administration, after the continuous administration for 1 week: value in parentheses. The format is in vivo. On the procedure: Blood Sugar-Depressing Action (ZDP rat): A test compound was suspended in 0.5% MC, and the suspension was orally administered to an animal once every day for 1 week. After the administration, the rat was allowed to fast for 4 hours, and blood was collected from the tail vein, added immediately to 0.6 M HClO4 (0.6 M HClO4=1:9), and centrifuged to give a supernatant which was then measured for glucose level by Glocose CII Test Wako Kit (Wako Pure Chemical Industries, Ltd., JP). In the table, values in the parentheses under the blood sugar level (mg/dl) indicate glucose levels relative to those (=100%) before the administration of the test compound.

Sequence of PDE4D (Q08499 303-809 limits assumed): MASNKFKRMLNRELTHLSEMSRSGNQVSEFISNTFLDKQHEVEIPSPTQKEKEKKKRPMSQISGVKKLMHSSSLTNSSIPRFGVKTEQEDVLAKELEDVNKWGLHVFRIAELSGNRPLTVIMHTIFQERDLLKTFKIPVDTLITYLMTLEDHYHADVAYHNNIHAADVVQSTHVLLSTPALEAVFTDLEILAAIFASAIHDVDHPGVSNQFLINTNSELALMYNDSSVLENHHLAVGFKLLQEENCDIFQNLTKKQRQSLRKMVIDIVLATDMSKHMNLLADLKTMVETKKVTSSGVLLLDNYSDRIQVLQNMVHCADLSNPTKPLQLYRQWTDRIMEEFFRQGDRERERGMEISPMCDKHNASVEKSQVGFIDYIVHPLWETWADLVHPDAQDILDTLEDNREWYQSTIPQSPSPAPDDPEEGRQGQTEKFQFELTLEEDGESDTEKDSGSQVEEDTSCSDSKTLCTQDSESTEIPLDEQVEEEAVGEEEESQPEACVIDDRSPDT

Consider `CNc1nc(-c2cccc(NC(=O)c3ccc(OC)c(OC)c3)c2)c2cc(OC)c(OC)cc2n1` [Example 14, 6,7-Dimethoxy-4-[3-(3,4-dimethoxybenzoylamino)phenyl]-2-methylaminoquinazoline], for which the melting point fell in the range of 128 to 130 °C. Further, the IC50 with TNFα production was 1.6 nM. Also, on PDE4D, the concentration for half-maximal inhibition (IC50) was 4 nM.

In turn, `CNc1ccc(C(=O)Nc2cccc(-c3nc(NC)nc4cc(OC)c(OC)cc34)c2)cn1` [Example 32, 6,7-Dimethoxy-2-methylamino-4-[3-(6-methylaminonicotinoylamino)phenyl]quinazoline] returned a melting point of 193 to 195 °C. The IC50 in the data set with TNFα production came out at 2.3 nM. Also, on PDE4D, the IC50 was 2.6 nM. In addition, in the data set on ZDP rat, the “Blood sugar level, Before the administration” value was found to be 478.5 ± 7.3 mg/dL; the “Blood sugar level, After the continuous administration for 1 week” value is 349.3 ± 44.3 mg/dL; the “Glucose level relative to that (=100%) before the administration, after the continuous administration for 1 week” value is “(73.0) %”.

Compound `CCOc1cc2nc(NC)nc(-c3cccc(-c4cncc([S+](C)[O-])c4)c3)c2cc1OCC` (centres unmarked) [Example 62] showed a melting point of 188 to 190 °C. The half-maximal inhibitory concentration (IC50) at PDE4D is 1.9 nM. Besides, in the data set on ZDP rat, the “Blood sugar level, Before the administration” value is 478.6 ± 24.0 mg/dL; the “Blood sugar level, After the continuous administration for 1 week” value came out at 369.1 ± 37.3 mg/dL; the “Glucose level relative to that (=100%) before the administration, after the continuous administration for 1 week” value was “(77.1) %”.

For the compound `CNc1nc(-c2cccc(NC(=O)c3ccc(N(C)C)nc3)c2)c2cc(OC)c(OC)cc2n1` [Example 30, 6,7-Dimethoxy-4-[3-(6-dimethylaminonicotinoylamino)phenyl]-2-methylaminoquinazoline], the melting point is 149 to 151 °C. Further, on PDE4D, the 50% inhibitory concentration (IC50) was determined as 2.6 nM.

Compound `CNc1nc(-c2cccc(NC(=O)c3ccnc(N4CCCC4)c3)c2)c2cc(OC)c(OC)cc2n1` [Example 34] displayed a melting point of 135 to 137 °C. The IC50 at PDE4D was 3.1 nM.

`CNc1nc(-c2cccc(-c3ccc(SC)cc3)c2)c2cc(OC)c(OC)cc2n1` [Example 52, 6,7-Dimethoxy-2-methylamino-4-(4′-methylthio-3-biphenylyl)quinazoline] returned a melting point of 140 to 142 °C. The IC50 at PDE4D amounted to 1.8 nM.

The compound `CCOc1cc2nc(NC)nc(-c3cccc(-c4cnc5ccccc5c4)c3)c2cc1OCC` [Example 60, 6,7-Diethoxy-2-methylamino-4-[3-(3-quinolyl)phenyl]quinazoline] came in with a melting point of 157 to 159 °C. Also, at PDE4D, the IC50 was 0.22 nM.

`CNc1nc(-c2cccc(N3Cc4ccccc4C3=O)c2)c2cc(OC)c(OC)cc2n1` [Example 45, 6,7-Dimethoxy-4-[3-(1-oxo-2-isoindolynyl)phenyl]-2-methylaminoquinazoline] registered a melting point of 230 to 232 °C. For the same compound, the 50% inhibitory concentration (IC50) at PDE4D is 0.72 nM.

The compound `CNc1nc(-c2cccc(-c3cnc4ccccc4c3)c2)c2cc(OC)c(OC)cc2n1` [Example 49, 6,7-Dimethoxy-2-methylamino-4-[3-(3-quinolyl)phenyl]quinazoline] registered a melting point of 218 to 220 °C. Moreover, the concentration for half-maximal inhibition (IC50) in the data set on TNFα production is 1.7 nM. For the same compound, the IC50 at PDE4D stood at 1.1 nM.

The compound `CNc1nc(-c2cccc(NC(=O)c3ccc(OC)c(OC4CCCC4)c3)c2)c2cc(OC)c(OC)cc2n1` [Example 17, 4-[3-(3-Cyclopentyloxy-4-methoxybenzoylamino)phenyl]-6,7-dimethoxy-2-methylaminoquinazoline] displayed a melting point of 129 to 131 °C. Moreover, the 50% inhibitory concentration (IC50) at PDE4D came to 4.2 nM.

`CNc1nc(-c2cccc(-c3ccc([S+](C)[O-])cc3)c2)c2cc(OC)c(OC)cc2n1` (centres unmarked) [Example 53, 6,7-Dimethoxy-2-methylamino-4-(4′-methylsulfinyl-3-biphenylyl)quinazoline] registered a melting point of 153 to 155 °C. Further, the IC50 on PDE4D amounted to 0.63 nM.

For the compound `CCOc1cc2nc(NC)nc(-c3cccc(-c4cncc(SC)c4)c3)c2cc1OCC` [Example 61, 6,7-Diethoxy-2-methylamino-4-[3-(methylthio-3-pyridyl)phenyl]quinazoline], the melting point fell in the range of 105 to 107 °C. Besides, the 50% inhibitory concentration (IC50) on PDE4D stood at 0.6 nM.

In the case of `CNc1nc(-c2cccc(NC(=O)c3ccncc3)c2)c2cc(OC)c(OC)cc2n1` [Example 2, 6,7-Dimethoxy-2-methylamino-4-[3-(4-pyridinecarbonylamino)phenyl]quinazoline], the melting point fell in the range of 228 to 230 °C. The 50% inhibitory concentration (IC50) in the data set on TNFα production turned out to be 4.7 nM. The IC50 on PDE4D was found to be 8.5 nM.

In the case of `CNc1nc(-c2cccc(NC(=O)c3ccc(O)cc3)c2)c2cc(OC)c(OC)cc2n1` [Example 21, 6,7-Dimethoxy-4-[3-(4-hydroxybenzoylamino)phenyl]-2-methylaminoquinazoline], the melting point lay within 178 to 180 °C. Further, on PDE4D, the IC50 was 2.2 nM.

As for `CNc1nc(-c2cccc(-c3cncc4ccccc34)c2)c2cc(OC)c(OC)cc2n1` [Example 51, 6,7-Dimethoxy-2-methylamino-4-[3-(4-isoquinolyl)phenyl]quinazoline], the melting point lay in the range of 181 to 183 °C. At PDE4D, the half-maximal inhibitory concentration (IC50) is 3.2 nM.

Regarding `CNc1nc(-c2cccc(NC(=O)c3ccc(OC)c(Cl)c3)c2)c2cc(OC)c(OC)cc2n1` [Example 18, 4-[3-(3-Chloro-4-methoxybenzoylamino)phenyl]-6,7-dimethoxy-2-methylaminoquinazoline], the melting point lay in the range of 130 to 132 °C. Moreover, the 50% inhibitory concentration (IC50) with TNFα production is 3.3 nM. For the same compound, the IC50 on PDE4D stood at 1.4 nM.

Compound `CNc1nc(-c2cccc(N3Cc4ccccc4C3)c2)c2cc(OC)c(OC)cc2n1` [Example 44, 6,7-Dimethoxy-4-[3-(2-isoindolynyl)phenyl]-2-methylaminoquinazoline] showed a melting point of 194 to 196 °C. Moreover, the IC50 at PDE4D was determined as 2.5 nM.

`CNc1nc(-c2cccc(-c3cccc(SC)c3)c2)c2cc(OC)c(OC)cc2n1` [Example 54, 6,7-Dimethoxy-2-methylamino-4-(3′-methylthio-3-biphenylyl)quinazoline] displayed a melting point of 195 to 197 °C. Further, the concentration for half-maximal inhibition (IC50) on PDE4D amounted to 1.7 nM.
